Test results published in ChEMBL document CHEMBL3885881, “DrugMatrix”.

Organism: Rattus norvegicus
Test: DrugMatrix - Regimen: Daily Repeat
Assay type: toxicity, organism-based, Sprague-Dawley
Set-up: regimen Daily Repeat, gender Male, age 6-8 weeks
Conditions: in vivo, po, route oral GAVAGE, vehicle .5 % CMC; for ABSOLUTE BASOPHIL / ABSOLUTE EOSINOPHIL / ABSOLUTE LYMPHOCYTE / ABSOLUTE MONOCYTE / ABSOLUTE SEGMENTED NEUTROPHIL / BASOPHIL / EOSINOPHIL / ERYTHROCYTE COUNT / HEMATOCRIT / HEMOGLOBIN / LEUKOCYTE COUNT / LYMPHOCYTE / MEAN CORPUSCULAR HEMOGLOBIN / MEAN CORPUSCULAR HEMOGLOBIN CONCENTRATION / MEAN CORPUSCULAR VOLUME / MONOCYTE / NEUTROPHIL / NUCLEATED RED BLOOD CELLS / PLATELET COUNT: tissue Blood; for ALANINE AMINOTRANSFERASE / ALBUMIN / ALKALINE PHOSPHATASE / ASPARTATE AMINOTRANSFERASE / BLOOD UREA NITROGEN / CARBON DIOXIDE / CHLORIDE / CHOLESTEROL / CREATINE PHOSPHOKINASE / CREATININE / GLUCOSE / LACTATE DEHYDROGENASE / LIPASE / PHOSPHORUS / POTASSIUM / SODIUM / TOTAL BILIRUBIN / TOTAL PROTEIN / URIC ACID: tissue Plasma
[1] = 4.5 mg/kg, 120 h, dose level Low, time 5 day
[2] = 10 mg/kg, 72 h, dose level High, time 3 day
[3] = 10 mg/kg, 120 h, dose level High, time 5 day

CC(C(=O)O)c1ccc(-c2ccccc2)c(F)c1 (centres undefined) [FLURBIPROFEN]
ABSOLUTE BASOPHIL [1]: 0 CELLS/uL
ABSOLUTE EOSINOPHIL [1]: 147.67 CELLS/uL
ABSOLUTE LYMPHOCYTE [1]: 17510 CELLS/uL
ABSOLUTE MONOCYTE [1]: 77.67 CELLS/uL
ABSOLUTE SEGMENTED NEUTROPHIL [1]: 4798 CELLS/uL
BASOPHIL [1]: 0%
EOSINOPHIL [1]: 0.67%
ERYTHROCYTE COUNT [1]: 5.45 x10E6/uL
HEMATOCRIT [1]: 34.47%
HEMOGLOBIN [1]: 12.83 G/DL
LEUKOCYTE COUNT [1]: 22.53 x10E3/uL
LYMPHOCYTE [1]: 77.67%
MEAN CORPUSCULAR HEMOGLOBIN [1]: 23.53 pg
MEAN CORPUSCULAR HEMOGLOBIN CONCENTRATION [1]: 37.23 G/DL
MEAN CORPUSCULAR VOLUME [1]: 63.2 fL
MONOCYTE [1]: 0.33%
NEUTROPHIL [1]: 21.33%
NUCLEATED RED BLOOD CELLS [1]: 0 /100WBC
PLATELET COUNT [1]: 1825.67 x10E3/uL
ALANINE AMINOTRANSFERASE [1]: 45.67 u/L
ALBUMIN [1]: 3.93 G/DL
ALKALINE PHOSPHATASE [1]: 223.33 u/L
ASPARTATE AMINOTRANSFERASE [1]: 67.33 u/L
BLOOD UREA NITROGEN [1]: 14.67 mg/dL
CARBON DIOXIDE [1]: 27.67 mmol/L
CHLORIDE [1]: 100 MEQ/L
CHOLESTEROL [1]: 64.33 mg/dL
CREATINE PHOSPHOKINASE [1]: 204.67 u/L
CREATININE [1]: 0.18 mg/dL
GLUCOSE [1]: 162.67 mg/dL
LACTATE DEHYDROGENASE [1]: 109.33 u/L
LIPASE [1]: 8.67 u/L
PHOSPHORUS [1]: 11.9 mg/dL
POTASSIUM [1]: 6.47 MEQ/L
SODIUM [1]: 143.53 MEQ/L
TOTAL BILIRUBIN [1]: 0.17 mg/dL
TOTAL PROTEIN [1]: 5.73 G/DL
URIC ACID [1]: 2.47 mg/dL
ABSOLUTE BASOPHIL [2]: 0 CELLS/uL
ABSOLUTE EOSINOPHIL [2]: 156 CELLS/uL
ABSOLUTE LYMPHOCYTE [2]: 13184.67 CELLS/uL
ABSOLUTE MONOCYTE [2]: 124.67 CELLS/uL
ABSOLUTE SEGMENTED NEUTROPHIL [2]: 3134.67 CELLS/uL
BASOPHIL [2]: 0%
EOSINOPHIL [2]: 1%
ERYTHROCYTE COUNT [2]: 4.13 x10E6/uL
HEMATOCRIT [2]: 25.13%
HEMOGLOBIN [2]: 10 G/DL
LEUKOCYTE COUNT [2]: 16.6 x10E3/uL
LYMPHOCYTE [2]: 79.67%
MEAN CORPUSCULAR HEMOGLOBIN [2]: 24.27 pg
MEAN CORPUSCULAR HEMOGLOBIN CONCENTRATION [2]: 39.83 G/DL
MEAN CORPUSCULAR VOLUME [2]: 61.07 fL
MONOCYTE [2]: 0.67%
NEUTROPHIL [2]: 18.67%
NUCLEATED RED BLOOD CELLS [2]: 0 /100WBC
PLATELET COUNT [2]: 1131.67 x10E3/uL
ALANINE AMINOTRANSFERASE [2]: 16 u/L
ALBUMIN [2]: 2.13 G/DL
ALKALINE PHOSPHATASE [2]: 132.67 u/L
ASPARTATE AMINOTRANSFERASE [2]: 50 u/L
BLOOD UREA NITROGEN [2]: 12 mg/dL
CARBON DIOXIDE [2]: 23 mmol/L
CHLORIDE [2]: 104.33 MEQ/L
CHOLESTEROL [2]: 60 mg/dL
CREATINE PHOSPHOKINASE [2]: 459.67 u/L
CREATININE [2]: 0.11 mg/dL
GLUCOSE [2]: 149.33 mg/dL
LACTATE DEHYDROGENASE [2]: 200.33 u/L
LIPASE [2]: 7.33 u/L
PHOSPHORUS [2]: 10.17 mg/dL
POTASSIUM [2]: 6.66 MEQ/L
SODIUM [2]: 141.47 MEQ/L
TOTAL BILIRUBIN [2]: 0 mg/dL
TOTAL PROTEIN [2]: 3.97 G/DL
URIC ACID [2]: 1.6 mg/dL
ABSOLUTE BASOPHIL [3]: 0 CELLS/uL
ABSOLUTE EOSINOPHIL [3]: 295.67 CELLS/uL
ABSOLUTE LYMPHOCYTE [3]: 12633.33 CELLS/uL
ABSOLUTE MONOCYTE [3]: 394 CELLS/uL
ABSOLUTE SEGMENTED NEUTROPHIL [3]: 4310.33 CELLS/uL
BASOPHIL [3]: 0%
EOSINOPHIL [3]: 2%
ERYTHROCYTE COUNT [3]: 4.56 x10E6/uL
HEMATOCRIT [3]: 28.67%
HEMOGLOBIN [3]: 11 G/DL
LEUKOCYTE COUNT [3]: 17.63 x10E3/uL
LYMPHOCYTE [3]: 68.33%
MEAN CORPUSCULAR HEMOGLOBIN [3]: 24.17 pg
MEAN CORPUSCULAR HEMOGLOBIN CONCENTRATION [3]: 38.37 G/DL
MEAN CORPUSCULAR VOLUME [3]: 62.97 fL
MONOCYTE [3]: 1.67%
NEUTROPHIL [3]: 28%
NUCLEATED RED BLOOD CELLS [3]: 0.33 /100WBC
PLATELET COUNT [3]: 1559.67 x10E3/uL
ALANINE AMINOTRANSFERASE [3]: 29 u/L
ALBUMIN [3]: 2.7 G/DL
ALKALINE PHOSPHATASE [3]: 259.67 u/L
ASPARTATE AMINOTRANSFERASE [3]: 105.67 u/L
BLOOD UREA NITROGEN [3]: 16 mg/dL
CARBON DIOXIDE [3]: 25 mmol/L
CHLORIDE [3]: 100.67 MEQ/L
CHOLESTEROL [3]: 63.33 mg/dL
CREATINE PHOSPHOKINASE [3]: 164.67 u/L
CREATININE [3]: 0.13 mg/dL
GLUCOSE [3]: 140.33 mg/dL
LACTATE DEHYDROGENASE [3]: 138 u/L
LIPASE [3]: 8.33 u/L
PHOSPHORUS [3]: 11.9 mg/dL
POTASSIUM [3]: 6.44 MEQ/L
SODIUM [3]: 142.2 MEQ/L
TOTAL BILIRUBIN [3]: 0.1 mg/dL
TOTAL PROTEIN [3]: 5.03 G/DL
URIC ACID [3]: 1.63 mg/dL
